Measurements published in US4118424A, “Biodegradable insecticides” (priority 1976, dated 1978).
In brackets after ≈: the same amount, converted by molar mass.

How the values were obtained:
Format in all cases: in vivo
[1] = test system: Musca domestica Rsp strain; experiment: Insect toxicity, Musca domestica Rsp strain, DDT-resistant; conditions: for LD50: Musca domestica, without PB; for Musca domestica Rsp strain w/PB LD50: with PB
[2] = test system: Anopheles albimanus larvae; experiment: Insect toxicity, Anopheles albimanus larvae
Phormia regina = experiment: Insect toxicity, Phormia regina
Culex fatigans larvae = experiment: Insect toxicity, Culex fatigans larvae; conditions: Culex quinquefasciatus
Culex fatigans adults = experiment: Insect toxicity, Culex fatigans adults
[3] = test system: Musca domestica (NAIDM strain); experiment: Insect toxicity, Musca domestica NAIDM strain; conditions: for LD50: Musca domestica, without PB; for Musca domestica NAIDM (w/PB) LD50: with PB
[4] = test system: Anopheles albimanus adults; experiment: Insect toxicity, Anopheles albimanus adults

Structure (SMILES) | LD50 [1] | Musca domestica Rsp strain w/PB LD50 [1] | LC50 [2] | LD50 (Phormia regina) | LC50 (Culex fatigans larvae) | Culex fatigans adults-LC50 (Culex fatigans adults) | LD50 [3] | Musca domestica NAIDM (w/PB) LD50 [3] | Anopheles albimanus adults LC50 [4]
Cc1ccc(C(c2ccc(C)cc2)C(C)Cl)cc1 (centres unmarked) [Example II] | > 500 mg/kg | 140 µg/g | > 1 µg/mL | > 250 mg/kg | 0.22 µg/mL (≈ 0.85 µM) | 9.7 ug/cm^2 | > 500 mg/kg | 24.5 µg/g | 6.9 ug/cm^2
CCOc1ccc(C(c2ccc(OC)cc2)C(C)C)cc1 (centres unmarked) [Example X] | 110 mg/kg | 17.5 µg/g | 0.17 µg/mL (≈ 0.598 µM) | 28.5 mg/kg | 0.13 µg/mL (≈ 0.457 µM) | 16.5 ug/cm^2 | 65 mg/kg | 12 µg/g | 6.3 ug/cm^2
CCOc1ccc(C(c2ccc(OC)cc2)C(C)Cl)cc1 (centres unmarked) [IV] | 100 mg/kg | 4.8 µg/g | 0.15 µg/mL (≈ 0.492 µM) | 12 mg/kg | 0.15 µg/mL (≈ 0.492 µM) | > 160 ug/cm^2 | 47 mg/kg | 4.7 µg/g | 27 ug/cm^2
CCCc1ccc(C(c2ccc(CCC)cc2)C(C)Cl)cc1 (centres unmarked) [IX] | 120 mg/kg | 90 µg/g | 0.068 µg/mL (≈ 0.216 µM) | > 250 mg/kg | 0.145 µg/mL (≈ 0.46 µM) | > 160 ug/cm^2 | 55 mg/kg | 45 µg/g | 17 ug/cm^2
CCCc1ccc(C(c2ccc(C)cc2)C(C)Cl)cc1 (centres unmarked) [VIII] | 155 mg/kg | 85 µg/g | 0.18 µg/mL (≈ 0.628 µM) | 97.5 mg/kg | 0.18 µg/mL (≈ 0.628 µM) | 12 ug/cm^2 | 65 mg/kg | 29 µg/g | 7.2 ug/cm^2
CCCOc1ccc(C(c2ccc(OCCC)cc2)C(C)Cl)cc1 (centres unmarked) [VII] | 85 mg/kg | 42 µg/g | 0.16 µg/mL (≈ 0.461 µM) | 42.5 mg/kg | 0.12 µg/mL (≈ 0.346 µM) | > 160 ug/cm^2 | 28 mg/kg | 10 µg/g | > 160 ug/cm^2
CCCOc1ccc(C(c2ccc(OCC)cc2)C(C)Cl)cc1 (centres unmarked) [VI] | 25 mg/kg | 5.5 µg/g | 0.075 µg/mL (≈ 0.225 µM) | 62.5 mg/kg | 0.05 µg/mL (≈ 0.15 µM) | > 160 ug/cm^2 | 15.5 mg/kg | 3.2 µg/g | 14.5 ug/cm^2
CCCOc1ccc(C(c2ccc(OCCC)cc2)C(C)C)cc1 [XIII] | 185 mg/kg |  | 0.25 µg/mL (≈ 0.766 µM) | 200 mg/kg | 0.3 µg/mL (≈ 0.919 µM) | > 160 ug/cm^2 | 100 mg/kg | 21.5 µg/g | > 160 ug/cm^2
COc1ccc(C(c2ccc(OC)cc2)C(C)(Cl)Cl)cc1 [XVIII] | 155 mg/kg | 9.5 µg/g | 0.18 µg/mL (≈ 0.553 µM) | 13.5 mg/kg | 0.061 µg/mL (≈ 0.188 µM) | > 160 ug/cm^2 | 65 mg/kg | 8 µg/g | 1.63 ug/cm^2
Cc1ccc(C(c2ccc(C)cc2)C(C)(Cl)Cl)cc1 [XVII] | 270 mg/kg | 7.0 µg/g | 0.13 µg/mL (≈ 0.443 µM) | 8 mg/kg | 0.2 µg/mL (≈ 0.682 µM) | 8.0 ug/cm^2 | 145 mg/kg | 18 µg/g | 5 ug/cm^2
CCCCOc1ccc(C(c2ccc(C)cc2)C(C)C)cc1 (centres unmarked) [XVI] | > 500 mg/kg | > 500 µg/g | 0.19 µg/mL (≈ 0.641 µM) | > 250 mg/kg | > 1 µg/mL | > 160 ug/cm^2 | > 500 mg/kg | 240 µg/g | > 160 ug/cm^2
